For this experiment, the system named is bovine brain glycolipid transfer protein (GTP) cDNA (660 bp). In words: PCR amplification of GTP with lower denaturation/extension temperatures. Format: biochemical. The following applies: for Potency: annealing 55° C., normalized: 1,5-pentanediol (95/72° C.) = 1; for Effective: concentration interval over which target band minus control is at least 50% of maximum volume. How it is done: Amplification reactions were carried out under the following general conditions. Those skilled in the art will appreciate, however, that to the extent that the conditions (set forth in this application) required for specific experiments described in this example were inconsistent with the following general conditions, limited exceptions to the following general conditions were made The general conditions were as follows: 10 Mm Tris-HCl (Ph 8.8), 50 Mm KCl, 1.5 Mm MgCl2, 0.01% (w/v) gelatin, 0.2 Um primers, 0.06 ng/ul template, 0.2 Mm each Dntp, 0.04 U/ul Taq polymerase. The templates used were bovine brain N-WASP cDNA (1518 bp), a 996 by segment of human myeloid leukocyte c-jun cDNA, a 511 by segment of human prostate-specific membrane antigen (PSM) cDNA, and bovine brain glycolipid transfer protein (GTP) cDNA (660 bp). cDNA synthesis was carried out using the FIRST-STRAND® RT-PCR kit from Stratagene on the respective mRNAs purchased from Clontech. All amplification reactions for gene were carried out using a single master batch of cDNA. Taq polymerase and dNTPs were obtained from Stratagene. Primers were obtained from Genosys. Primer melting temperatures (Tms) were calculated using the Genosys oligo calculator program. The sequences of the primers were as follows.
Polymerase chain reactions for the N-WASP gene were conducted on a ROBOCYCLER® Gradient 40 thermal cycler from Stratagene using 100 ul solutions in 600 ul thin-walled tubes. For expediency, amplification of c-jun, PSM and GTP was carried out in a ROBOCYCLER® Gradient 96 thermal cycler from Stratagene using 50 ul solutions in 200 ul thin-walled tubes. Prior to Taq polymerase addition, a hotstart protocol was carried out that consisted of an initial cycle of 95° C. for 5 minutes (11) to ensure complete first-strand separation, followed by a cycle of 54° C. for 5 minutes. Amplifications were run for 30 cycles. Denaturation was done for 1 minute at the minimum temperatures that yielded discernable amplification: 92° C. for N-WASP and 95° C. for c-jun, PSM and GTP. Extension was done at 72° C. for periods depending on target length: 2 minutes for N-WASP, 1.5 minutes for c-jun and GTP, and 1 minute for PSM. Annealings were carried out either at fixed concentrations of additives using temperature gradients of 38-56° C. for N-WASP and 44-58° C. for the other targets, or at varying concentrations of additives using fixed temperatures of 41° C. for N-WASP, 50° C. for c-jun and PSM, and 54° C. for GTP.
Amplification products were analyzed by agarose gel electrophoresis on 0.8% agarose gels in which 20 ul reaction products were loaded with 4 ul loading buffer. Gels were stained with ethidium bromide, visualized on a UV transilluminator (Fisher), and documented by photography. Densitometric quantitation of amplification products was carried out using IMAGE SCANNER® and IMAGE MASTER® software from Amersham Pharmacia. Background correction was done using the software's rolling disc method.
Two phases of investigations were carried out into the use of 62° C. extension temperature in PCR reactions. The first involved concentration gradients with 1,2-butanediol and 1,5-pentanediol employing 62° C. extension and 95° C. denaturation. The first template used was GTP. A larger range of concentrations was employed than usual in the experiments due to the anticipated increase in effective range. These concentrations were: 0.1, 0.31, 0.5, 0.6, 0.8, 0.9 and 1.1M for 1,2-butanediol and 0.01, 0.2, 0.3, 0.4, 0.5, 0.7 and 1.0M for 1,5-pentanediol. The second phase of investigation involved experiments in which the denaturation temperature was lowered to 92° C. The following concentrations were tested: 1,2-butanediol—0.1, 0.3, 0.5, 0.6, 0.7, 0.9, 1.1, 1.3, and 1.4M; 1,5-pentanediol: 0.1, 0.2, 0.3, 0.4, 0.5, 0.7, 1.0, and 1.4M. 1,2-butanediol was also tested with the more GC-rich template c-jun. The following concentrations were tested: 0.1, 0.3, 0.5, 0.7, 0.9, 1.1, 1.4M.

The mark [1] stands for this setting: 92/62° C. denaturation/extension.
The mark [2] stands for this setting: 95/62° C. denaturation/extension.

With `CCC(O)CO` (stereo not drawn) [1,2-Butanediol], the Potency was determined as 1.50 under setting [1] and 0.88 under setting [2]. Further, the Effective by setting is: (92/62° C.) 0.50-1.27; (95/62° C.) 0.10-0.82.
`OCCCCCO` [1,5-Pentanediol]: the Potency under setting [1] was 1.97 and the Potency under setting [2] came to 1.49. The Effective is reported as 0.29-0.90 (92/62° C.) and 0.15-0.63 (95/62° C.). In addition, the cutoff concentration (92° C. denaturation, 62° C. extension) is on record as 1.0 M.

(Values after patent US7772383B2, “Chemical PCR: Compositions for enhancing polynucleotide amplification reactions” (The Trustees of Princeton University, priority 2002, dated 2010).)
